Experimental data published in ChEMBL document CHEMBL1136821, “Modelling of carbonic anhydrase inhibitory activity of sulfonamides using molecular negentropy” (Bioorg Med Chem Lett, 2003).

Assays:
[1] = target: T1, Carbonic anhydrase 4 (Bos taurus, UniProt Q95323); experiment: Inhibition of bovine carbonic anhydrase IV (CAIV)
T1 sequence (Q95323 whole entry): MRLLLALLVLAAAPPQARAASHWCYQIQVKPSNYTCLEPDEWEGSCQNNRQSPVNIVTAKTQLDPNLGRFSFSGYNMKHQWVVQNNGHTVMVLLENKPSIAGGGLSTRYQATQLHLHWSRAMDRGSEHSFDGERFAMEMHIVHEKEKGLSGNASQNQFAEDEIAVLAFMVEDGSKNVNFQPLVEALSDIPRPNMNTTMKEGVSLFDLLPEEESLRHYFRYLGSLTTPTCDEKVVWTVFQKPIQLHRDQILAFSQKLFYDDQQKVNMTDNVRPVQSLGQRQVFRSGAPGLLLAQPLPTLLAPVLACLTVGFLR

[2] = target: Carbonic anhydrase 1 (Homo sapiens, UniProt P00915); experiment: Inhibition of human carbonic anhydrase I (CAI)
[3] = target: Carbonic anhydrase 2 (Homo sapiens, UniProt P00918); experiment: Inhibition of human carbonic anhydrase II (CAII)

Chain of Carbonic anhydrase 1 (P00915 whole entry): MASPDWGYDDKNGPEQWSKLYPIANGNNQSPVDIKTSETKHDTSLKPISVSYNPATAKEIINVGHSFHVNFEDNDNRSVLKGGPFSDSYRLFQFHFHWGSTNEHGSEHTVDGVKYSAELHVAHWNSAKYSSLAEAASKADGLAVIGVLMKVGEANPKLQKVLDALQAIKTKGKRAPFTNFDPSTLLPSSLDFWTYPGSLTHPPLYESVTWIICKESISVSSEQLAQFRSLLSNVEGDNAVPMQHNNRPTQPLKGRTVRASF

NS(=O)(=O)c1cccc(C(=O)c2cccc(C(=O)O)n2)c1
Ki [1]: 0.305 µM | Ki [2]: 20 µM | Ki [3]: 0.25 µM

NS(=O)(=O)c1ccc(C(=O)c2cccc(C(=O)O)n2)cc1
Ki [1]: 0.17 µM | Ki [2]: 15.5 µM | Ki [3]: 0.132 µM

NS(=O)(=O)c1ccc(C(=O)c2cccc(C(=O)O)n2)c(Cl)c1
Ki [1]: 0.079 µM | Ki [2]: 0.62 µM | Ki [3]: 0.044 µM

NS(=O)(=O)c1cc(S(N)(=O)=O)c(NC(=O)c2cccc(C(=O)O)n2)c(Cl)c1NC(=O)c1cccc(C(=O)O)n1
Ki [1]: 0.055 µM | Ki [2]: 0.45 µM | Ki [3]: 0.01 µM

NS(=O)(=O)c1ccc(CC(=O)c2cccc(C(=O)O)n2)cc1
Ki [1]: 0.079 µM

Nc1c(S(N)(=O)=O)cc(S(N)(=O)=O)c(N)c1Cl
Ki [1]: 0.175 µM | Ki [2]: 6.1 µM

NS(=O)(=O)c1cc(S(N)(=O)=O)c(C(=O)c2cccc(C(=O)O)n2)cc1Cl
Ki [1]: 0.06 µM | Ki [2]: 0.6 µM | Ki [3]: 0.00899 µM

NS(=O)(=O)c1ccc(CCON2C(=O)c3cccnc3C2=O)cc1
Ki [1]: 0.105 µM | Ki [2]: 2 µM | Ki [3]: 0.015 µM

NS(=O)(=O)c1ccc(C(=O)c2cccc(C(=O)O)n2)c(Br)c1
Ki [1]: 0.075 µM | Ki [2]: 0.605 µM

NS(=O)(=O)c1cc(S(N)(=O)=O)c(C(=O)c2cccc(C(=O)O)n2)c(Cl)c1C(=O)c1cccc(C(=O)O)n1
Ki [1]: 0.069 µM | Ki [2]: 0.5 µM | Ki [3]: 0.012 µM

NS(=O)(=O)c1ccc(C(=O)c2cccc(C(=O)O)n2)c(F)c1
Ki [1]: 0.046 µM | Ki [2]: 0.54 µM | Ki [3]: 0.01 µM

NS(=O)(=O)c1ccc(CCC(=O)c2cccc(C(=O)O)n2)cc1
Ki [1]: 0.054 µM | Ki [2]: 0.906 µM | Ki [3]: 0.00899 µM

NS(=O)(=O)c1ccccc1C(=O)c1cccc(C(=O)O)n1
Ki [1]: 0.31 µM | Ki [2]: 21 µM | Ki [3]: 0.28 µM

NS(=O)(=O)c1ccc(CON2C(=O)c3cccnc3C2=O)cc1
Ki [1]: 0.12 µM | Ki [2]: 2.04 µM | Ki [3]: 0.02 µM

NS(=O)(=O)c1ccc(C(=O)c2cccc(C(=O)O)n2)c(I)c1
Ki [1]: 0.07 µM | Ki [2]: 0.61 µM | Ki [3]: 0.033 µM

NS(=O)(=O)c1ccc(NC(=O)c2cccc(C(=O)O)n2)cc1
Ki [1]: 0.3 µM | Ki [2]: 21.5 µM
